Measurements as given in patent US7173040B2, “Farnesyl transferase inhibiting 6-[(substituted phenyl)methyl]-quinoline and quinazoline derinazoline derivatives” (Janssen Pharmaceutica N.V., priority 2000, dated 2007).

Compared with Cn1cncc1C(N)(c1ccc(C#N)cc1)c1ccc2c(c1)c(-c1cccc(Cl)c1)cc(=O)n2C (centres unmarked) [Example B41d, 4-[amino[4-(3-chlorophenyl)-1,2-dihydro-1-methyl-2-oxo-6quinolinyl](1-methyl-1H-imidazol-5-yl)methyl]-benzonitrile], Cn1cncc1C(O)(c1ccc(C#N)cc1)c1ccc2c(c1)c(-c1cccc(Cl)c1)cc(=O)n2C (racemic) [Example B41b, (±)-4-[[4-(3-chlorophenyl)-1,2-dihydro-1-methyl-2-oxo-6-quinolinyl]hydroxy(1-methyl-1H-imidazol-5yl)methyl]benzonitrile] is lower in melting point: 245 °C for the first, 210 °C for the second.

Compared with Cn1c(=O)cc(-c2cccc(Cl)c2)c2cc(C(O)(c3ccc(Cl)cc3)c3cnccc3N)ccc21 (centres unmarked) [Example B42, 6-[(4amino-3-pyridinyl)(4-chlorophenyl)hydroxymethyl]-4-(3-chlorophenyl)-1-methyl-2(1H)-quinolinone], Cn1c(=O)cc(-c2cccc(Cl)c2)c2cc(C(O)(c3ccc(Cl)cc3)c3cnccc3Cl)ccc21 (centres unmarked) [Example B39, 4-(3-chlorophenyl)-6-[(4-chlorophenyl)(4-chloro-3-pyridinyl)hydroxymethyl]-1-methyl-2(1H)-quinolinone] is lower in melting point: 262 °C for the first, 178 °C for the second.

Cn1cncc1C(O)(c1cccc(CO)c1)c1ccc2c(c1)c(-c1cccc(Cl)c1)cc(=O)n2C (centres unmarked) [Example B45b, 4-(3-chlorophenyl)-6-[hydroxy[3-(hydroxymethyl)phenyl](1-methyl-1H-imidazol-5-yl)methyl]-1-methyl-2(1H)-quinolinone] and CC(C)OC(=O)c1cccc(C(O)(c2ccc3c(c2)c(-c2cccc(Cl)c2)cc(=O)n3C)c2cncn2C)c1 (centres unmarked) [Example B45a, 1-methylethyl 3-[[4-(3-chlorophenyl)-1,2-dihydro-1-methyl-2-oxo-6-quinolinyl]hydroxy(1-methyl-1H-imidazol-5-yl)methyl]-benzoate] are the same in melting point: 150 °C for the first, 150 °C for the second.

Compared with Cn1cnnc1C(CCl)(c1ccc(Cl)cc1)c1ccc2c(c1)c(-c1cccc(Cl)c1)cc(=O)n2C (centres unmarked) [Example B31, 6-[2-chloro-1-(4-chlorophenyl)-1-(4-methyl-4H-1,2,4-triazol-3-yl)ethyl]-4-(3-chlorophenyl)-1-methyl-2(1H)-quinolinone], Cn1cnnc1C(N)(c1ccc(Cl)cc1)c1ccc2c(c1)c(-c1cccc(Cl)c1)cc(=O)n2C (centres unmarked) [Example B22b, 6-[amino(4-chlorophenyl)(4-methyl-4H-1,2,4-triazol-3-yl)methyl]-4-(3-chlorophenyl)-1-methyl-2(1H)-quinolinone] is lower in melting point: 260 °C for the first, 210 °C for the second.

First: Cn1cnnc1C(c1ccc(Cl)cc1)c1ccc2c(c1)c(-c1cccc(Cl)c1)cc(=O)n2C (centres unmarked) [Example B7, 4-(3-chlorophenyl)-6-[(4-chlorophenyl)(4-methyl-4H-1,2,4-triazol-3-yl)methyl]-1-methyl-2(1H)-quinolinone]
Second: CCOC(=O)c1cn2c(cc(-c3cccc(Cl)c3)c3cc(C(c4ccc(Cl)cc4)c4nncn4C)ccc32)n1 (centres unmarked) [Example B35, ethyl 5-(3-chlorophenyl)-7-[(4-chlorophenyl)(4-methyl-4H-1,2,4-triazol-3-yl)methyl]-imidazo[1,2-a]quinoline-2-carboxylate]
The melting point of the first is lower: 153 °C for the first, 220 °C for the second.

First: Cn1cncc1C(N)(c1ccc([N+](=O)[O-])cc1)c1ccc2c(c1)c(-c1cccc(Cl)c1)cc(=O)n2C (racemic) [Example B8b, (±)-6-[amino(1-methyl-1H-imidazol-5-yl)(4-nitrophenyl)methyl]-4-(3-chlorophenyl)-1-methyl-2(1H)-quinolinone]
Second: Cn1cncc1C(O)(c1ccc([N+](=O)[O-])cc1)c1ccc2c(c1)c(-c1cccc(Cl)c1)cc(=O)n2C (racemic) [Example B4, (±)-4-(3-chlorophenyl)-6-[hydroxy(1-methyl-1H-imidazol-5-yl)(4-nitrophenyl)methyl]-1-methyl-2(1H)-quinolinone]
The melting point of the first is higher: 258 °C for the first, 230 °C for the second.

First: Cn1cnnc1C(N)(c1ccc(C#N)cc1)c1ccc2c(c1)c(-c1cccc(Cl)c1)nc1nnnn12 (centres unmarked) [Example B29d, 4-[amino[5-(3-chlorophenyl)tetrazolo[1,5-a]quinazolin-7-yl](4-methyl-4H-1,2,4-triazol-3-yl)methyl]-benzonitrile]
Second: Cn1cnnc1C(N)(c1ccc(I)cc1)c1ccc2c(c1)c(-c1cccc(Cl)c1)nc1nnnn12 (stereo not drawn) [Example B29c, 5-(3-chlorophenyl)-α-(4-iodophenyl)-α-(4-methyl-4H-1,2,4-triazol-3-yl)-tetrazolo[1,5-a]quinazoline-7-methanamine]
The melting point of the first is lower: 194 °C for the first, 238 °C for the second.

Compared with Cn1cnnc1C(c1ccc(Cl)cc1)c1ccc2c(c1)c(-c1cccc(Cl)c1)nc1nnnn12 (centres unmarked) [Example B20, 5-(3-chlorophenyl)-7-[(4-chlorophenyl)(4methyl-4H-1,2,4-triazol-3-yl)methyl]-tetrazolo[1,5-a]quinazoline], Cn1cnnc1C(c1ccc(I)cc1)c1ccc2c(c1)c(-c1cccc(Cl)c1)nc1nnnn12 (centres unmarked) [Example B26b, tetrazolo[1,5-a]quinazoline, 5-(3-chlorophenyl)-7-[(4-iodophenyl)(4methyl-4H-1,2,4-triazol-3-yl)methyl]-] is lower in melting point: 217 °C for the first, 150 °C for the second.

Compared with CSc1nnc(C(N)(c2ccc(Cl)cc2)c2ccc3c(c2)c(-c2cccc(Cl)c2)nc2nnnn23)n1C (stereo not drawn) [Example B28d, 5-(3-chlorophenyl)-α-(4-chlorophenyl)-α-[4-methyl-5-(methylthio)-4H-1,2,4-triazol-3-yl]-tetrazolo[1,5-a]quinazoline-7-methanamine], CSc1nnc(C(O)(c2ccc(Cl)cc2)c2ccc3c(c2)c(-c2cccc(Cl)c2)nc2nnnn23)n1C (stereo not drawn) [Example B28b, 5-(3-chlorophenyl)-α-(4-chlorophenyl)-α-[4-methyl-5-(methylthio)-4H-1,2,4-triazol-3-yl]-tetrazolo[1,5-a]quinazoline-7-methanol] is lower in melting point: 150 °C for the first, 65 °C for the second.

Compared with Cn1c(=O)cc(-c2cccc(Cl)c2)c2cc(C(N)(c3ccc(Cl)cc3)c3cnccc3Cl)ccc21 (centres unmarked) [Example B40b, 6-[amino(4-chlorophenyl)(4-chloro-3-pyridinyl)methyl]-4(3-chlorophenyl)-1-methyl-2(1H)-quinolinone], Cn1cncc1C(N)(c1ccc(CN)cc1)c1ccc2c(c1)c(-c1cccc(Cl)c1)cc(=O)n2C (centres unmarked) [Example B41e, 6-[amino[4-(aminomethyl)phenyl](1-methyl-1H-imidazol-5-yl)methyl]-4-(3-chlorophenyl)-1-methyl-2(1H)-quinolinone] is lower in melting point: 180 °C for the first, 150 °C for the second.

Compared with Cn1cnnc1C(O)(c1ccc(I)cc1)c1ccc2c(c1)C(c1cccc(Cl)c1)Nc1nnnn1-2 (stereo not drawn) [Example B46, 5-(3-chlorophenyl)-4,5-dihydro-α-(4-iodophenyl)-α-(4-methyl-4H-1,2,4-triazol-3-yl)-tetrazolo[1,5-a]quinazoline-7-methanol], Cn1cnnc1C(O)(c1ccc(Cl)cc1)c1ccc2c(c1)c(-c1cccc(Cl)c1)cc(=O)n2C (centres unmarked) [Example B13, 4-(3-chlorophenyl)-6-[(4-chlorophenyl)hydroxy(4-methyl-4H-1,2,4-triazol-3-yl)methyl]-1-methyl-2(1H)-quinolinone] is lower in melting point: 201 °C for the first, 182 °C for the second.

Compared with Cn1cncc1C(O)(c1ccc(C=O)cc1)c1ccc2c(c1)c(-c1cccc(Cl)c1)nc1nnnn12 (centres unmarked) [Example B38, 4-[[5-(3-chlorophenyl)tetrazolo[1,5-a]quinazolin-7-yl]hydroxy(1-methyl-1H-imidazol-5-yl)methyl]-benzaldehyde], Cn1cncc1C(O)(c1ccc(C=O)cc1)c1ccc2c(c1)c(-c1cccc(Cl)c1)cc(=O)n2C (racemic) [Example B6, (±)-4-[[4-(3-chlorophenyl)-1,2-dihydro-1-methyl-2-oxo-6-quinolinyl]hydroxy(1-methyl-1H-imidazol-5-yl)methyl]benzaldehyde] is higher in melting point: 170 °C for the first, 208 °C for the second.

First: Cn1cnnc1C(O)(c1ccc(Cl)cc1)c1ccc2c(c1)c(-c1cccc(Cl)c1)cc(=O)n2Cc1ccc(C#N)cc1 (centres unmarked) [Example B33, 4-[[4-(3-chlorophenyl)-6-[(4-chlorophenyl)hydroxy(4-methyl-4H-1,2,4-triazol-3-yl)methyl]-2-oxo-1(2H)-quinolinyl]methyl]-benzonitrile]
Second: Cn1cncc1C(O)(c1ccc(-c2ccc(Cl)cc2)cc1)c1ccc2c(c1)c(-c1cccc(Cl)c1)cc(=O)n2C (racemic) [Example B10, (±)-6-[(4′-chloro[1,1′-biphenyl]-4-yl)hydroxy(1-methyl-1H-imidazol-5-yl)methyl]-4-(3-chlorophenyl)-1-methyl-2(1H)-quinolinone]
The melting point of the first is lower: 185 °C for the first, 236 °C for the second.

CC(O)c1ccc(C(O)(c2ccc3c(c2)c(-c2cccc(Cl)c2)cc(=O)n3C)c2cncn2C)cc1 (racemic) [Example B17, (±)-4-(3-chlorophenyl)-6-[hydroxy[4-(1-hydroxyethyl)phenyl](1-methyl-1H-imidazol-5-yl)methyl]-1-methyl-2(1H)-quinolinone] showed a melting point of 181 °C.

In the case of Cn1cnnc1C(O)(c1ccc(Cl)cc1)c1ccc2[nH]c(=O)cc(-c3cccc(Cl)c3)c2c1 (centres unmarked) [Example B32, 4-(3-chlorophenyl)-6-[(4-chlorophenyl)hydroxy(4-methyl-4H-1,2,4-triazol-3-yl)methyl]-2(1H)-quinolinone], the melting point was > 260 °C.
With Cl.Cn1cncc1C(O)(c1ccc(C=O)cc1)c1ccc2[nH]c(=O)cc(-c3cccc(Cl)c3)c2c1 (racemic) the melting point was > 260 °C.
In the case of Cn1cncc1C(O)(c1ccc(C(=O)O)cc1)c1ccc2c(c1)c(-c1cccc(Cl)c1)cc(=O)n2C (racemic) [Example B19, (±)-4-[[4-(3-chlorophenyl)-1,2-dihydro-1-methyl-2-oxo-6-quinolinyl]hydroxy(1-methyl-1H-imidazol-5-yl)methyl]benzoic acid], the melting point was > 260 °C.
With Cl.Cn1cncc1C(O)(c1ccc(C(=O)O)cc1)c1ccc2[nH]c(=O)cc(-c3cccc(Cl)c3)c2c1.O (racemic) (hydrate or solvate) the melting point was > 300 °C.
With Cn1cncc1C(O)(c1ccc2c(c1)OCCO2)c1ccc2[nH]c(=O)nc(-c3cccc(Cl)c3)c2c1 (centres unmarked) [Example B30, 4-(3-chlorophenyl)-6-[(2,3-dihydro-1,4-benzodioxin-6-yl)hydroxy(1-methyl-1H-imidazol-5-yl)methyl]-2(1H)-quinazolinone] the melting point was > 260 °C.
